Literature values, collected in PMC7468272 (Acta Pharmacologica Sinica, 2019).

Tested on: CBP/p300

Structure (SMILES): CO[C@H]1CC[C@H](n2c([C@@H]3CCCC(=O)N3c3ccc(F)c(F)c3)nc3cc(-c4c(C)noc4C)ccc32)CC1 [CCS1477]
- affinity for CBP/p300: single-digit nanomolar affinity
